# From patent US20260262643A1, “HERBICIDAL BENZOXAZINES” (FMC CORPORATION, priority 2022, published 2026)
# Columns and labels:
# Test in all cases: Test A preemergence
# Settings in all cases: 1000 g ai/ha, 0 to 100 scale (0 no effect, 100 complete control), 10 days
# [1] = test system: barnyardgrass; type: in vivo, Echinochloa crusgalli
# Method in brief: (§1)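 Seeds in loam–sand blend received a directed preemergence soil spray of compound in non-phytotoxic solvent with surfactant; postemergence plants (2–10 cm, one- to two-leaf stage) were sprayed with the same formulation. After 10 days in greenhouse, injury was rated visually versus untreated controls, 0 (no effect) to 100 (complete control).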
# [2] = test system: foxtail, giant; type: in vivo, Setaria faberi
# Method in brief: as §1
# [3] = test system: kochia; type: in vivo, Bassia scoparia
# Method in brief: as §1
# [4] = test system: Pigweed, Redroot; type: in vivo, Amaranthus retroflexus
# Text: Seeds of plant species selected from barnyardgrass (Echinochloa crusgalli), blackgrass (Alopecurus myosuroides), corn (Zea mays), foxtail, giant (giant foxtail, Setaria faberi), goosegrass (Eleusine indica), kochia (Bassia scoparia), oat, wild (wild oat, Avena fatua), pigweed, palmer (palmer amaranth, palmer pigweed, Amaranthus palmeri), Pigweed, Redroot (redroot pigweed, Amaranthus retroflexus), ragweed (common ragweed, Ambrosia artemisiifolia), ryegrass, Italian (italian ryegrass, Lolium multiflorum), soybean (Glycine max), and wheat (Triticum aestivum) were planted into a blend of loam soil and sand and treated preemergence with a directed soil spray using test chemicals formulated in a non-phytotoxic solvent mixture which included a surfactant. At the same time, plants selected from these crops and weed species and also galium (catchweed bedstraw, Galium aparine) and horseweed (Erigeron canadensis) were planted in pots containing the same blend of loam soil and sand and treated with postemergence applications of test chemicals formulated in the same manner. Plants ranged in height from 2 to 10 cm and were in the one- to two-leaf stage for the postemergence treatment. Treated plants and untreated controls were maintained in a greenhouse for 10 days, after which time all treated plants were compared to untreated controls and visually evaluated for injury. Plant response ratings, summarized in Table A, are based on a 0 to 100 scale where 0 is no effect and 100 is complete control. A dash (-) response means no test result.
# [5] = test system: ragweed; type: in vivo, Ambrosia artemisiifolia
# Method in brief: as §1
# [6] = test system: ryegrass, Italian; type: in vivo, Lolium multiflorum
# Method in brief: as §1
Compound,"Plant response rating, Barnyardgrass [1]","Plant response rating, Foxtail, Giant [2]","Plant response rating, Kochia [3]","Plant response rating, Pigweed, Redroot [4]","Plant response rating, Ragweed [5]","Plant response rating, Ryegrass, Italian [6]"
"CCC1CN(C(=O)c2ccnc(-n3cncn3)c2)c2cccc(Cl)c2O1 (single isomer, unassigned) [Compound 4]",0,0,0,0,0,0
CCC1CN(C(=O)c2ccnc(-n3cncn3)c2)c2ccc(Cl)cc2O1 (stereo not drawn) [Compound 16],0,0,20,20,0,0
CC1CN(C(=O)c2ccnc(-n3cncn3)c2)c2cccc(Cl)c2O1 (stereo not drawn) [Compound 9],0,0,0,0,0,0
CCC1CN(C(=O)c2ccnc(-n3cncn3)c2)c2c(Cl)cccc2O1 (stereo not drawn) [Compound 14],0,30,30,10,0,20
CCC1CN(C(=O)c2ccnc(-n3cncn3)c2)c2cc(Cl)ccc2O1 (stereo not drawn) [Compound 12],0,20,0,0,0,0
CCC1CN(C(=O)c2ccnc(-n3cncn3)c2)c2cccc(C)c2O1 (stereo not drawn) [Compound 11],30,100,0,90,0,50
